Test results reported in EP2865421A1, “Bitter taste receptor agonists for topical use” (Albert-Ludwigs-Universität Freiburg, priority 2013, dated 2015).

Legend:
T2R38 = target: T1, T2R38 (Homo sapiens, UniProt P59533, A49P/I296V); test: PTC-induced calcium influx in taster cell line JEG-3 and its inhibition by probenecid; format: cell-based
T1 construct: endogenous in cells; host or cells: JEG-3 (human placental cell line)
T1 sequence (P59533 1-333 A49P/I296V): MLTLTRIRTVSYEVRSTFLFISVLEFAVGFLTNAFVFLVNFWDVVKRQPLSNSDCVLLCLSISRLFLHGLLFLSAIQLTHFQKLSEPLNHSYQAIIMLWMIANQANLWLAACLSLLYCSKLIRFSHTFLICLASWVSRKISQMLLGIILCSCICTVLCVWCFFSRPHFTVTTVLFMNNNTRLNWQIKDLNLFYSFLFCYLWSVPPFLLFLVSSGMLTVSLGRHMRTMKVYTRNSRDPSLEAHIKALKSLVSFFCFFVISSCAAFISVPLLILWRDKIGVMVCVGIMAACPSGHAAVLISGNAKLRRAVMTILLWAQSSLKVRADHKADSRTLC
Procedure: Intracellular Ca^2+ concentration measurements in single cells were carried out using the fluorescence indicator fura-2-am (Invitrogen). Cells were washed with a buffer containing 130 mM NaCl, 5 mM KCI, 10 mM HEPES, 10 mM Glucose and 1 mM CaCl2 adjusted to pH 7.4 and loaded with 2 µM fura-2-am and 0.04% Pluronic F-127 (Invitrogen) for 30 min. After rinsing twice, cells were allowed to de-esterify fura-2-am for 30 min. Measurements were performed with a monochromator-based imaging system attached to an inverted microscope (Axiovert S100, Zeiss). Fluorescence was excited at 340 and 380 nm and emission measured at 510 nm. After 60s, cells were stimulated with various concentrations of diphenidol or amarogentin, 100 µM PTC or the respective solvent control. T2R38 receptor inhibition was performed by pre-incubation of JEG-3 cells for 1h with the T2R38 antagonist probenecid (1 mM) before PTC stimulation. After correction of background fluorescence, the fluorescence ratio was calculated using Axiovision software.

LAD-2 cells = format: cell-based, human
Procedure: (§3) The method is based on the bioluminescence measurement of ATP that is present in metabolically active cells. Luciferase catalyzes the formation of light from ATP and luciferin. The emitted light intensity is directly proportional to the ATP concentration and is measured using a luminometer (Sirius HT; MWG).

LAD-2 human mast cells [1] = test: Degranulation assay: histamine release from SP-stimulated LAD-2 mast cells (ELISA); format: cell-based; conditions: SP 2 µM, 1 h, 30 min pre-incubation, amarogentin 136 µM, azelastine 24 µM (Figure 14A)
Procedure: (§1) LAD-2 human mast cells (obtained from Dr. A. Kirshenbaum NIH) were cultured in serum-free media (StemPro-34, Gibco, Germany) supplemented with 2mM L-glutamine and 100 ng/ml rhSCF (recombinant human stem cell factor; Cell signaling technologies). The human keratinocyte cell line HaCaT was cultured in Dulbecco's modified essential medium (DMEM; Invitrogen) containing 10% fetal calf serum (FCS; PAA, Pasching, Austria) at 37 °C in a humidified atmosphere with 5% CO2. LAD-2 cells were washed with PBS and resuspended in complete medium. LAD-2 cells (2x10^5 cells /400 µl/well) were plated in 48 well flat bottom Falcon cell culture plates from Becton Dickinson and then stimulated with SP (2 µM, Sigma-Aldrich) for 1 or 24 h. Some cells were pre-incubated for 30 min with amarogentin (136 µM, Phytolab), diphenidol (136 µM, Santa Cruz) or azelastine (24 µM, Sigma) as indicated. The supernatants were collected for further assays. Mast cell degranulation was assessed by measuring histamine in the supernatant fluid 1 h after cell stimulation with SP (2 µM). Histamine levels were assayed using a Histamine ELISA from IBL international.

LAD-2 human mast cells [2] = test: TNF-α release from SP-stimulated LAD-2 mast cells (ELISA); format: cell-based; conditions: SP 2 µM, 24 h, 30 min pre-incubation, amarogentin 136 µM, diphenidol 136 µM, azelastine 24 µM (Figure 14B)
Procedure: as §1, with “assays. TNF-α, IL-6, IL-8 and MMP-1 release into” for “assays. Mast cell degranulation was assessed by measuring histamine in”, “fluid 24” for “fluid 1”, “stimulation (either LAD-2 oder HaCaT cells)” for “stimulation with SP (2 µM). Histamine levels”, “were measured by Enzyme-Linked Immunosorbent Assay (ELISA)” for “were assayed”, “a commercial kit” for “a Histamine ELISA”, “from R&D Systems according to the manual instructions.” for “from IBL international.”

[3] = test system: keratinocyte cell line HaCaT; test: IL-6 and MMP-1 release from HaCaT stimulated with histamine and IFN-γ (ELISA); format: cell-based, human; conditions: histamine + IFN-γ (200U/ml), 24 h, amarogentin 136 µM, azelastine 24 µM (Figure 15B)
Procedure: The Keratinocyte cell line HaCaT (2x10^5 cells /400 µl/well) were plated in 48 well flat bottom Falcon cell culture plates from Becton Dickinson and then stimulated with histamine (100 µl) and TNF-α (25 ng/ml) or IFNγ (200U/ml) for 24 h. Some cells were pre-incubated for 30 min with amarogentin (136 µM, Phytolab), diphenidol (136 µM, Santa Cruz) or azelastine (24 µM, Sigma) as indicated. The supernatants were collected for further assays. TNF-α, IL-6, IL-8 and MMP-1 release into the supernatant fluid 24 h after cell stimulation (either LAD-2 oder HaCaT cells) were measured by Enzyme-Linked Immunosorbent Assay (ELISA) using a commercial kit from R&D Systems according to the manual instructions.

HaCaT keratinocytes = test: Calcium imaging (fura-2-am) in HaCaT keratinocytes; format: cell-based, human; conditions: for calcium influx: HaCaT cells
Procedure: The human keratinocyte cell line HaCaT, the neuroblastoma cell line SH-SY5Y and the placental cell line JEG-3 were from CLS Cell Lines Service (Heidelberg, Germany) and cultured in Dulbecco's modified essential medium (DMEM; Invitrogen) containing 10% fetal calf serum (FCS; PAA, Pasching, Austria) at 37 °C in a humidified atmosphere with 5% CO2. For double fluorescence stainings the cells were seeded in a four-field chamber slides (Thermo Fisher Scientific GmbH; 1 ×10^5 cells/ml). For calcium imaging experiments, cells were seeded on polylysin (Sigma-Aldrich, Munich, Germany) coated cover slips at a density of 1.5 -2x 10^5. After isolation of human primary keratinocytes (hPK) from skin samples, the cells were incubated for 3 days with calcium (2 mM), amarogentin (100 μM) or diphenidol (100 μM) before RNA isolation and determination of the differentiation markers. Intracellular Ca^2+ concentration measurements in single cells were carried out using the fluorescence indicator fura-2-am (Invitrogen). Cells were washed with a buffer containing 130 mM NaCl, 5 mM KCI, 10 mM HEPES, 10 mM Glucose and 1 mM CaCl2 adjusted to pH 7.4 and loaded with 2 μM fura-2-am and 0.04% Pluronic F-127 (Invitrogen) for 30 min. After rinsing twice, cells were allowed to de-esterify fura-2-am for 30 min. Measurements were performed with a monochromator-based imaging system attached to an inverted microscope (Axiovert S100, Zeiss). Fluorescence was excited at 340 and 380 nm and emission measured at 510 nm. After 60s, cells were stimulated with various concentrations of diphenidol or amarogentin, 100 μM PTC or the respective solvent control. […] receptor inhibition was performed by pre-incubation of JEG-3 cells for 1h with the […] antagonist probenecid (1 mM) before PTC stimulation. After correction of background fluorescence, the fluorescence ratio was calculated using Axiovision software.

[4] = test system: SH-SY5Y neuroblastoma cells; test: Calcium imaging (fura-2-am) in SH-SY5Y neuroblastoma cells; format: cell-based, human; conditions: 100 µM diphenidol, significant, maximum stated for all cell lines (Figure 8)
Procedure: (§2) The human keratinocyte cell line HaCaT, the neuroblastoma cell line SH-SY5Y and the placental cell line JEG-3 were from CLS Cell Lines Service (Heidelberg, Germany) and cultured in Dulbecco's modified essential medium (DMEM; Invitrogen) containing 10% fetal calf serum (FCS; PAA, Pasching, Austria) at 37 °C in a humidified atmosphere with 5% CO2. For double fluorescence stainings the cells were seeded in a four-field chamber slides (Thermo Fisher Scientific GmbH; 1 ×10^5 cells/ml). For calcium imaging experiments, cells were seeded on polylysin (Sigma-Aldrich, Munich, Germany) coated cover slips at a density of 1.5 -2x 10^5. After isolation of human primary keratinocytes (hPK) from skin samples, the cells were incubated for 3 days with calcium (2 mM), amarogentin (100 μM) or diphenidol (100 μM) before RNA isolation and determination of the differentiation markers. Intracellular Ca^2+ concentration measurements in single cells were carried out using the fluorescence indicator fura-2-am (Invitrogen). Cells were washed with a buffer containing 130 mM NaCl, 5 mM KCI, 10 mM HEPES, 10 mM Glucose and 1 mM CaCl2 adjusted to pH 7.4 and loaded with 2 μM fura-2-am and 0.04% Pluronic F-127 (Invitrogen) for 30 min. […] Fluorescence was excited at 340 and 380 nm and emission measured at 510 nm. […] After correction of background fluorescence, the fluorescence ratio was calculated using Axiovision software.

JEG-3 placental cells = test: Calcium imaging (fura-2-am) in JEG-3 placental cells; format: cell-based, human; conditions: 100 µM diphenidol, significant, maximum stated for all cell lines (Figure 8)
Procedure: as §2

[5] = test system: human primary keratinocytes (hPKs); test: Differentiation marker expression in human primary keratinocytes (RT-PCR); format: cell-based; conditions: 3 days, amarogentin 100 µM, diphenidol 100 µM or calcium 2 mM, vs untreated control (Figure 12)
Procedure: The human keratinocyte cell line HaCaT, the neuroblastoma cell line SH-SY5Y and the placental cell line JEG-3 were from CLS Cell Lines Service (Heidelberg, Germany) and cultured in Dulbecco's modified essential medium (DMEM; Invitrogen) containing 10% fetal calf serum (FCS; PAA, Pasching, Austria) at 37 °C in a humidified atmosphere with 5% CO2. For double fluorescence stainings the cells were seeded in a four-field chamber slides (Thermo Fisher Scientific GmbH; 1 ×10^5 cells/ml). For calcium imaging experiments, cells were seeded on polylysin (Sigma-Aldrich, Munich, Germany) coated cover slips at a density of 1.5 -2x 10^5. After isolation of human primary keratinocytes (hPK) from skin samples, the cells were incubated for 3 days with calcium (2 mM), amarogentin (100 µM) or diphenidol (100 µM) before RNA isolation and determination of the differentiation markers. Reverse transcription PCR was performed as described (Muller et al.,2008). In brief, total RNA was isolated using the Trizol reagent (Invitrogen) according to the manusfacturer's instruction. […] The PCR primers (20 pmol each) used to amplify keratin 10 (KRT10), INV, TGM and ß-actine were already published (Muller et al., 2008). ß-actine was used as internal loading control. After gel electrophoresis quantification was archived with ImageJ software.

[6] = test system: keratinocyte cell line HaCaT; test: IL-8 and MMP-1 release from HaCaT stimulated with histamine and TNF-α (ELISA); format: cell-based, human; conditions: histamine + TNF-α (25 ng/ml), 24 h, amarogentin 136 µM 30 min pre-incubation (Figure 15A)
Procedure: The Keratinocyte cell line HaCaT (2x10^5 cells /400 µl/well) were plated in 48 well flat bottom Falcon cell culture plates from Becton Dickinson and then stimulated with histamine (100 µl) and TNF-α (25 ng/ml) or IFNγ (200U/ml) for 24 h. Some cells were pre-incubated for 30 min with amarogentin (136 µM, Phytolab), diphenidol (136 µM, Santa Cruz) or azelastine (24 µM, Sigma) as indicated. The supernatants were collected for further assays.
TNF-α, IL-6, IL-8 and MMP-1 release into the supernatant fluid 24 h after cell stimulation (either LAD-2 oder HaCaT cells) were measured by Enzyme-Linked Immunosorbent Assay (ELISA) using a commercial kit from R&D Systems according to the manual instructions.

Procedure for HaCaT cells: as §3

## NC(=S)Nc1ccccc1 [PTC, Phenylthiocarbamid]
T2R38; PTC 100 µM, JEG-3 cells (PAV taster), vs DMSO 0.05% (Figure 10)
  calcium influx: induced calcium influx

## CN1CCCC(n2nc(Cc3ccc(Cl)cc3)c3ccccc3c2=O)CC1 (stereo not drawn) [azelastine]
LAD-2 cells
  cytotoxicity: no cytotoxicity
LAD-2 human mast cells [1]
  histamine release: inhibits histamine release
LAD-2 human mast cells [2]
  secretion of TNF-α: blocked the secretion of TNF-α
[3]
  IL-6 production: decreased
  MMP-1 production: decreased

## OC(CCCN1CCCCC1)(c1ccccc1)c1ccccc1 [diphenidol]
HaCaT keratinocytes; 100 µM diphenidol, HaCaT, significant, maximum stated for all cell lines (Figure 8)
  calcium influx compared to the solvent control: up to 7 fold
HaCaT keratinocytes; diphenidol 30 µM, fura-2 ratio before/after stimulation vs solvent (Figure 11)
  calcium influx: significant calcium influx
[4]
  calcium influx compared to the solvent control: up to 7 fold
JEG-3 placental cells
  calcium influx compared to the solvent control: up to 7 fold
[5]
  expression of the differentiation marker keratin 10, involucrin und transglutaminase: increased
LAD-2 human mast cells [2]
  secretion of TNF-α: blocked the secretion of TNF-α
HaCaT cells
  cytotoxicity: no cytotoxicity

## CCCN(CCC)S(=O)(=O)c1ccc(C(=O)O)cc1 [probenecid]
T2R38; 1h pre-incubation with probenecid (1 mM), then PTC 100 µM, JEG-3 cells
  PTC-induced calcium currents: reduces PTC-induced calcium currents to solvent level

## amarogentin
HaCaT keratinocytes; 100 µM amarogentin, vs 0.1% EtOH (Figure 11)
  calcium influx: significant calcium influx
[5]
  expression of the differentiation marker keratin 10, involucrin und transglutaminase: increased
LAD-2 cells
  cytotoxicity: no cytotoxicity
LAD-2 human mast cells [1]
  histamine release: inhibits histamine release
LAD-2 human mast cells [2]
  secretion of TNF-α: blocked the secretion of TNF-α
[6]
  release of IL-8: reduces the release
  release of MMP-1: reduces the release
[3]
  IL-6 production: decreased
  MMP-1 production: decreased
HaCaT cells
  cytotoxicity: no cytotoxicity
